The values that follow come from patent publication US20090281054A1, “COMPOSITIONS AND METHODS COMPRISING CAPURAMYCIN ANALOGUES” (priority 2008, published 2009).

In brackets after ≈: the same amount, converted by molar mass. Where two headings read alike, the source gives them in different places.

The subject of one test is MTB in J774A.1 cells. Nature of the test: Intracellular activity of SQ641 with efflux pump blockers. The format is cell-based, Mycobacterium tuberculosis. Particulars: J774A.1 cells; VE and CsA at 10 μM.
Test [1] concerns M. kansaii (MKN; ATCC12478 & 35775). In words: MIC by microdilution method in 7H9 broth. Particulars: Mycobacterium kansasii, read-out: MIC. Type of test: cell-based, M. kansasii.
Another test concerns the target translocase I (Escherichia coli, UniProt P0A6W3). Nature of the test: IC50 against translocase I. The format is biochemical.
In test [2] the test system is M. smegmatis (MSMG; MC2155). Nature of the test: MIC by microdilution method in 7H9 broth. Type of test: cell-based. As to conditions: Mycolicibacterium smegmatis, MC2155|MC^2155; MSMG MC^2155; 72 hr; read-out: MIC.
For test [3], the system named is M. abscessus (MAB; ATCC 700869). In words: MIC by microdilution method in 7H9 broth. Type of test: cell-based. Particulars: Mycobacteroides abscessus, ATCC700869; MAB 700869; read-out: MIC.
Another test has as its system M. avium complex (MAC). In words: MIC by microdilution method in 7H9 broth. Type of test: cell-based. Particulars: Mycobacterium avium; for MIC90: value in square brackets, read-out: MIC90.
[4] abbreviates: ATCC 12478 / ATCC 35775, MKN ATCC35775.
Where [5] appears, read: 336 h, MAC isolates, 2 wk, read-out: MIC (range).
The mark [6] stands for this setting: MAC strain NIH C1-1, read-out: MIC.
[7] abbreviates: MAC strain NIH C1-2, read-out: MIC.
Setting [8] is: MAC strain NIH C1-3, read-out: MIC.
Setting [9] is: MAC strain NIH C1-4, read-out: MIC.

Sequence of translocase I (P0A6W3 whole entry): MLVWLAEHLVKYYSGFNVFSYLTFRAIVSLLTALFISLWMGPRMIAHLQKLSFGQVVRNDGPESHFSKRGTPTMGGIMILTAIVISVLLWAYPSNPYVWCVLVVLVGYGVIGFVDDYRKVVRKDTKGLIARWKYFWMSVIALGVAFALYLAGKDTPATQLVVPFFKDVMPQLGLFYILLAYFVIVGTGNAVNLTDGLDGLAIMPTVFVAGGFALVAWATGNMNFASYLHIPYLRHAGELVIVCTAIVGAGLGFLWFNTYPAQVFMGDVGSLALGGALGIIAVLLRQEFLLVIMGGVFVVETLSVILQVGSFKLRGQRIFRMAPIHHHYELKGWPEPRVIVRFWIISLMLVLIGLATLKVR

Regarding `CCCN(CCC)S(=O)(=O)c1ccc(C(=O)O)cc1` [PB, probenecid, reference compound], the “Effect of efflux pump blocker on intracellular activity of SQ641 against MTB” value in the test with MTB in J774A.1 cells was “only moderate effects”.
For `CO[C@H]1[C@@H](O)[C@H](n2ccc(=O)[nH]c2=O)O[C@@H]1[C@@H](O[C@H]1OC(C(=O)Nc2ccc(C(F)(F)F)cc2)=C[C@H](O)[C@@H]1O)C(N)=O` [RKS2033], the MIC in test [1] (setting [4]) was 2 µg/mL (≈ 3.32 µM); in test [1] (MKN ATCC12478), 16 µg/mL (≈ 26.6 µM); in test [2], 4 µg/mL (≈ 6.64 µM); in test [3], 2 µg/mL (≈ 3.32 µM); in the test on M. avium complex (MAC) (setting [5]), 1 to 8 µg/mL (≈ 1.66 to 13.3 µM); in the test with M. avium complex (MAC) (MAC strain 100, read-out: MIC), 2 µg/mL (≈ 3.32 µM). Also, the MIC in the test on M. avium complex (MAC) (MAC strain 101, read-out: MIC) stood at 2 µg/mL (≈ 3.32 µM); with M. avium complex (MAC) (MAC strain 104, read-out: MIC), 1 µg/mL (≈ 1.66 µM); in the test on M. avium complex (MAC) (MAC strain 109, read-out: MIC), 1 µg/mL (≈ 1.66 µM); with M. avium complex (MAC) (MAC strain A5, read-out: MIC), 2 µg/mL (≈ 3.32 µM); in the test on M. avium complex (MAC) (MAC strain JSH1, read-out: MIC), 2 µg/mL (≈ 3.32 µM); with M. avium complex (MAC) (setting [6]) it was 4 µg/mL (≈ 6.64 µM). Besides, the MIC is 2 µg/mL (≈ 3.32 µM) with M. avium complex (MAC) (setting [7]), 8 µg/mL (≈ 13.3 µM) with M. avium complex (MAC) (setting [8]) and 2 µg/mL (≈ 3.32 µM) in the test on M. avium complex (MAC) (setting [9]). The “IC50 against translocase I” value against translocase I came to 0.03 µg/mL (≈ 0.0498 µM). Moreover, the MIC90 in the test on M. avium complex (MAC) (MAC isolates) came out at 4 µg/mL (≈ 6.64 µM).
With `CO[C@H]1[C@@H](O)[C@H](n2ccc(=O)[nH]c2=O)O[C@@H]1[C@@H](O[C@H]1OC(C(=O)Nc2ccc(F)c(C(F)(F)F)c2)=C[C@H](O)[C@@H]1O)C(N)=O` [RKS2137], the minimum inhibitory concentration (MIC) in test [1] (setting [4]) was 2 µg/mL (≈ 3.22 µM); in test [1] (MKN ATCC12478) it was more than 32 µg/mL; in test [2] it was 4 µg/mL (≈ 6.45 µM); in test [3], 8 µg/mL (≈ 12.9 µM); in the test on M. avium complex (MAC) (setting [5]) it was 0.5 to 16 µg/mL (≈ 0.806 to 25.8 µM); with M. avium complex (MAC) (MAC strain 100, read-out: MIC), 2 µg/mL (≈ 3.22 µM). Further, the MIC in the test on M. avium complex (MAC) (MAC strain 101, read-out: MIC) stood at 1 µg/mL (≈ 1.61 µM); in the test on M. avium complex (MAC) (MAC strain 104, read-out: MIC), 1 µg/mL (≈ 1.61 µM); with M. avium complex (MAC) (MAC strain 109, read-out: MIC), 0.5 µg/mL (≈ 0.806 µM); in the test on M. avium complex (MAC) (MAC strain A5, read-out: MIC), 1 µg/mL (≈ 1.61 µM); in the test with M. avium complex (MAC) (MAC strain JSH1, read-out: MIC) it was 1 µg/mL (≈ 1.61 µM); in the test on M. avium complex (MAC) (setting [6]), 8 µg/mL (≈ 12.9 µM). For the same molecule, the MIC turned out to be 2 µg/mL (≈ 3.22 µM) with M. avium complex (MAC) (setting [7]), 16 µg/mL (≈ 25.8 µM) with M. avium complex (MAC) (setting [8]) and 2 µg/mL (≈ 3.22 µM) with M. avium complex (MAC) (setting [9]). Also, the IC50 at translocase I was 12.9 nM. Besides, the MIC90 in the test on M. avium complex (MAC) (MAC isolates) came out at 8 µg/mL (≈ 12.9 µM).
On to `CO[C@H]1[C@@H](O)[C@H](n2ccc(=O)[nH]c2=O)O[C@@H]1[C@@H](O[C@H]1OC(C(=O)Nc2cccc(F)c2)=C[C@H](O)[C@@H]1O)C(N)=O` [RKS2186], for which the MIC in test [1] (setting [4]) was 4 µg/mL (≈ 7.24 µM); in test [1] (MKN ATCC12478), more than 32 µg/mL; in test [2], 4 µg/mL (≈ 7.24 µM); in test [3], 16 µg/mL (≈ 29 µM); with M. avium complex (MAC) (MAC strain 100, read-out: MIC), 2 µg/mL (≈ 3.62 µM); in the test with M. avium complex (MAC) (MAC strain 101, read-out: MIC) it was 2 µg/mL (≈ 3.62 µM). Besides, the MIC in the test on M. avium complex (MAC) (MAC strain 104, read-out: MIC) turned out to be 1 µg/mL (≈ 1.81 µM); in the test with M. avium complex (MAC) (MAC strain 109, read-out: MIC), 1 µg/mL (≈ 1.81 µM); with M. avium complex (MAC) (MAC strain A5, read-out: MIC), 1 µg/mL (≈ 1.81 µM); in the test on M. avium complex (MAC) (MAC strain JSH1, read-out: MIC) it was 4 µg/mL (≈ 7.24 µM); in the test with M. avium complex (MAC) (setting [6]), 8 µg/mL (≈ 14.5 µM); in the test on M. avium complex (MAC) (setting [7]), 2 µg/mL (≈ 3.62 µM). In addition, the values for the MIC with M. avium complex (MAC) (setting [8]) and in the test with M. avium complex (MAC) (setting [9]) were 8 µg/mL (≈ 14.5 µM) and 2 µg/mL (≈ 3.62 µM), respectively. Further, the “IC50 against translocase I” value against translocase I amounted to 0.01 µg/mL (≈ 0.0181 µM). For the same molecule, in the test on M. avium complex (MAC) (MAC isolates), the MIC90 turned out to be 8 µg/mL (≈ 14.5 µM).
For the molecule `CO[C@H]1[C@@H](O)[C@H](n2ccc(=O)[nH]c2=O)O[C@@H]1[C@@H](O[C@H]1OC(C(=O)Nc2ccc(F)c(F)c2F)=C[C@H](O)[C@@H]1O)C(N)=O` [RKS2235], the minimal inhibitory concentration (MIC) in test [1] (setting [4]) is 2 µg/mL (≈ 3.4 µM); in test [1] (MKN ATCC12478), more than 32 µg/mL; in test [2], 4 µg/mL (≈ 6.8 µM); in test [3], 16 µg/mL (≈ 27.2 µM); in the test on M. avium complex (MAC) (setting [5]), 1 to 8 µg/mL (≈ 1.7 to 13.6 µM); in the test with M. avium complex (MAC) (MAC strain 100, read-out: MIC), 2 µg/mL (≈ 3.4 µM). Besides, the MIC turned out to be 1 µg/mL (≈ 1.7 µM) with M. avium complex (MAC) (MAC strain 101, read-out: MIC); 1 µg/mL (≈ 1.7 µM) with M. avium complex (MAC) (MAC strain 104, read-out: MIC); 1 µg/mL (≈ 1.7 µM) in the test on M. avium complex (MAC) (MAC strain 109, read-out: MIC); 1 µg/mL (≈ 1.7 µM) in the test on M. avium complex (MAC) (MAC strain A5, read-out: MIC); 2 µg/mL (≈ 3.4 µM) with M. avium complex (MAC) (MAC strain JSH1, read-out: MIC); 4 µg/mL (≈ 6.8 µM) in the test on M. avium complex (MAC) (setting [6]). Further, the MIC was 2 µg/mL (≈ 3.4 µM) in the test with M. avium complex (MAC) (setting [7]), 8 µg/mL (≈ 13.6 µM) in the test on M. avium complex (MAC) (setting [8]) and 2 µg/mL (≈ 3.4 µM) in the test with M. avium complex (MAC) (setting [9]). This molecule gave an IC50 against translocase I of 17 nM. Besides, in the test with M. avium complex (MAC) (MAC isolates), the MIC90 is 4 µg/mL (≈ 6.8 µM).
Regarding `COC(=O)C1=C[C@H](O)[C@H](O)[C@@H](O[C@@H](C(N)=O)[C@H]2O[C@@H](n3ccc(=O)[nH]c3=O)[C@H](O)[C@@H]2OC)O1` [RS 120029], the MIC in test [1] (setting [4]) is more than 32 µg/mL; in test [1] (MKN ATCC12478), more than 32 µg/mL; in test [2] it was more than 32 µg/mL; in test [3], more than 32 µg/mL; in the test with M. avium complex (MAC) (MAC strain 100, read-out: MIC) it was 32 µg/mL (≈ 67.6 µM); in the test on M. avium complex (MAC) (MAC strain 101, read-out: MIC) it was more than 32 µg/mL. Further, the MIC in the test with M. avium complex (MAC) (MAC strain 104, read-out: MIC) was 32 µg/mL (≈ 67.6 µM); in the test with M. avium complex (MAC) (MAC strain 109, read-out: MIC), 32 µg/mL (≈ 67.6 µM); in the test on M. avium complex (MAC) (MAC strain A5, read-out: MIC) it was 32 µg/mL (≈ 67.6 µM); in the test with M. avium complex (MAC) (MAC strain JSH1, read-out: MIC), more than 32 µg/mL; in the test on M. avium complex (MAC) (setting [6]), more than 32 µg/mL; in the test on M. avium complex (MAC) (setting [7]), more than 32 µg/mL. The MIC in the test with M. avium complex (MAC) (setting [8]) and with M. avium complex (MAC) (setting [9]) was more than 32 µg/mL in each case. Also, in the test on M. avium complex (MAC) (MAC isolates), the MIC90 stood at 32 µg/mL (≈ 67.6 µM).
